The CheMixHub ionic liquid set

Experiment: xn = mol fraction of the nth substance listed

CCCCCCCCCCCC[N+](C)(C)C.[Br-] + [Cl-].[Na+] + O
298.15 K, 101 kPa
Details | electrical conductivity [S/m]
x1 = 2.89e-06, x2 = 0.001799 | 0.8786
x1 = 4.51e-06, x2 = 0.0001802 | 0.1179
x1 = 7.42e-06, x2 = 0.001799 | 0.8778
x1 = 9.37e-06, x2 = 0.0001802 | 0.1201
x1 = 1.357e-05, x2 = 0.001799 | 0.878
x1 = 1.406e-05, x2 = 0.0001802 | 0.1223
x1 = 2.037e-05, x2 = 0.0001802 | 0.1252
x1 = 2.28e-05, x2 = 0.001799 | 0.8786
x1 = 2.92e-05, x2 = 0.0001802 | 0.1294
x1 = 3.184e-05, x2 = 0.001799 | 0.8802
x1 = 4.038e-05, x2 = 0.0001802 | 0.1348
x1 = 4.071e-05, x2 = 0.001799 | 0.8816
x1 = 4.957e-05, x2 = 0.001799 | 0.8831
x1 = 5.047e-05, x2 = 0.0001802 | 0.1397
x1 = 5.536e-05, x2 = 0.001799 | 0.8846
x1 = 6.115e-05, x2 = 0.001799 | 0.8858
x1 = 6.183e-05, x2 = 0.0001802 | 0.1451
x1 = 6.694e-05, x2 = 0.001799 | 0.8876
x1 = 7.273e-05, x2 = 0.001799 | 0.8895
x1 = 7.319e-05, x2 = 0.0001801 | 0.1504
x1 = 7.87e-05, x2 = 0.001799 | 0.8913
x1 = 8.4e-05, x2 = 0.0001801 | 0.1556
x1 = 8.467e-05, x2 = 0.001799 | 0.893
x1 = 9.064e-05, x2 = 0.001799 | 0.8946
x1 = 9.481e-05, x2 = 0.0001801 | 0.1607
x1 = 9.642e-05, x2 = 0.001799 | 0.8963
x1 = 0.000102, x2 = 0.001799 | 0.8978
x1 = 0.0001071, x2 = 0.0001801 | 0.1667
x1 = 0.0001078, x2 = 0.001799 | 0.8993
x1 = 0.0001134, x2 = 0.001799 | 0.9008
x1 = 0.0001199, x2 = 0.0001801 | 0.1727
x1 = 0.0001219, x2 = 0.001799 | 0.9032
x1 = 0.0001275, x2 = 0.001799 | 0.9048
x1 = 0.0001309, x2 = 0.0001801 | 0.1778
x1 = 0.0001331, x2 = 0.001799 | 0.9066
x1 = 0.0001415, x2 = 0.001798 | 0.9086
x1 = 0.0001435, x2 = 0.0001801 | 0.1838
x1 = 0.0001498, x2 = 0.001798 | 0.9101
x1 = 0.0001548, x2 = 0.0001801 | 0.1892
x1 = 0.0001554, x2 = 0.001798 | 0.9111
x1 = 0.000161, x2 = 0.001798 | 0.9122
x1 = 0.0001673, x2 = 0.0001801 | 0.1949
x1 = 0.0001693, x2 = 0.001798 | 0.9132
x1 = 0.0001776, x2 = 0.001798 | 0.9143
x1 = 0.0001793, x2 = 0.0001801 | 0.2005
x1 = 0.0001856, x2 = 0.001798 | 0.9156
x1 = 0.0001914, x2 = 0.0001801 | 0.2061
x1 = 0.0001935, x2 = 0.001798 | 0.9166
x1 = 0.0002017, x2 = 0.001798 | 0.9175
x1 = 0.0002022, x2 = 0.0001801 | 0.2111
x1 = 0.0002098, x2 = 0.001798 | 0.9186
x1 = 0.0002138, x2 = 0.0001801 | 0.2164
x1 = 0.000218, x2 = 0.001798 | 0.9197
x1 = 0.0002251, x2 = 0.0001801 | 0.2214
x1 = 0.0002259, x2 = 0.001798 | 0.9207
x1 = 0.0002339, x2 = 0.001798 | 0.9217
x1 = 0.0002365, x2 = 0.0001801 | 0.2263
x1 = 0.000246, x2 = 0.0001801 | 0.2301
x1 = 0.000257, x2 = 0.0001801 | 0.2333
x1 = 0.0002685, x2 = 0.0001801 | 0.2357
x1 = 0.0002797, x2 = 0.0001801 | 0.2376
x1 = 0.0002912, x2 = 0.0001801 | 0.2394
x1 = 0.0003044, x2 = 0.0001801 | 0.2413
x1 = 0.000319, x2 = 0.0001801 | 0.2432
x1 = 0.0003359, x2 = 0.0001801 | 0.2454
x1 = 0.0003538, x2 = 0.0001801 | 0.2477
x1 = 0.0003736, x2 = 0.0001801 | 0.2502
x1 = 0.0003955, x2 = 0.0001801 | 0.2528
x1 = 0.0004254, x2 = 0.0001801 | 0.2566

CC[n+]1ccn(C)c1.N#C[S-] + [N-]=C=S.[NH4+]
100 kPa, x2 = 0
Details | electrical conductivity [S/m] | viscosity [mPa·s]
323.15 K | 4.38 | 11.49
348.15 K | – | 6.87
353.15 K | – | 6.17

CCCCn1n[n+](CC)c2ccccc21.F[P-](F)(F)(F)(F)F + c1c[nH]cn1
101.3 kPa, x2 = 0.6993
Details | electrical conductivity [S/m] | viscosity [mPa·s]
343 K | 1.1 | 11
353 K | 1.4 | 7.7
363 K | 1.8 | 5.6
373 K | 2.2 | 5.2
383.1 K | 2.9 | 4.2
393.1 K | 3.2 | 3.6
403.1 K | 3.8 | 3.1

CCCC[N+]1(C)CCCC1.N#C[C-](C#N)C#N + c1ccc2sccc2c1
101 kPa
Details | viscosity [mPa·s]
308.15 K, x2 = 0 | 20.6
308.15 K, x2 = 0.5267 | 11.92
328.15 K, x2 = 0.5267 | 7.1
338.15 K, x2 = 0.3565 | 6.96

N#C[C-](C#N)C#N.OCC[n+]1ccccc1 + c1ccsc1
101 kPa
Details | viscosity [mPa·s]
293.15 K, x1 = 0.7041 | 52.2
293.15 K, x1 = 1 | 137
298.15 K, x1 = 0.901 | 67.1
303.15 K, x1 = 0.4996 | 19.1
303.15 K, x1 = 0.901 | 50.9
318.15 K, x1 = 0.8044 | 21.1
323.15 K, x1 = 0.6 | 12.2
328.15 K, x1 = 0.7041 | 12.6
328.15 K, x1 = 0.901 | 17.9
333.15 K, x1 = 0.4996 | 7.57
333.15 K, x1 = 0.6 | 9.12
338.15 K, x1 = 0.4042 | 5.4
338.15 K, x1 = 0.4996 | 6.54
338.15 K, x1 = 0.7041 | 9.43
343.15 K, x1 = 0.4996 | 5.74
343.15 K, x1 = 0.8044 | 9.9
